Read-outs that look alike come from different tables or passages of the source.
Legend:
Format in all cases: cell-based, human
[1] = system: SNORD116 snoRNAs; experiment: RNA-sequencing of Angelman syndrome iPSC neurons: SNORD116 snoRNAs; details: 30 μM; six days post-treatment; RNA-seq
Protocol: (§1) RNA was isolated using Qiagen RNAeasy Plus (74136, Qiagen, Hilden, Germany). RNA concentration was determined using Qubit Fluorometric Quantitation (Thermo Fisher Scientific) and RNA quality was assessed using a 4200 Agilent TapeStation (Agilent, Santa Clara, Calif.). RNA-sequencing libraries were generated using the Illumina TruSeq Stranded Total RNA kit (20020597, Illumina, Inc., San Diego, Calif.) according to the manufacturer's protocol. 75 base-pair paired-end sequencing was performed using a NextSeq 500 (IIlumina, San Diego, Calif.) at the Texas A&M Institute for Genome Sciences and Society Genomics core. Raw sequencing reads were processed using CASAVA. The resulting FASTQ sequences were examined using FASTQC. […]
(§2) To determine whether ASO-4.4.PS.L and ASO-6.1.PO-1.O affect the levels of RNA transcripts encoded by the PWS polycistronic transcript, RNA-sequencing was performed on AS iPS cells treated with each ASO and the steady state RNA levels of SNURF, SNRPN, the SNORD116 host-gene transcript (SNHG116), the SNORD116 snoRNAs, IPW, the SNORD115 host-gene transcript (SNHG115), the SNORD115 snoRNAs, and UBE3A-AS were quantified. UBE3A steady state RNA levels were also measured. […]

[2] = system: SNURF; experiment: RNA-sequencing of Angelman syndrome iPSC neurons: SNURF; details: 30 μM; six days post-treatment; RNA-seq
Protocol: as §1, §2

[3] = system: UBE3A-AS; experiment: UBE3A-AS steady state RNA (qRT-PCR) in glutamatergic iPSC-derived neurons; details: for 30 μM (Mean), normalized UBE3A-AS RNA level relative to vehicle / Emax Estimate (normalized UBE3A-AS RNA level relative to vehicle): 14 DIV to 20 DIV
Protocol: ASO-4 and ASO-6.1 were also examined in glutamatergic iPSC-derived neurons. Glutamatergic iPSC-derived neurons were treated at 14 DIV with a 10-point ½ log dose response curve of ASO-4 and ASO-6.1 [1 nM, 3 nM, 10 nM, 30 nM, 100 nM, 300 nM, 1 μM, 3 μM, 10 μM, and 30 μM (n=3)]. At 20 DIV, the IC50 and Emax of each ASO was estimated as described above (FIG. 5E-F and Table 15).
GABAergic and glutamatergic induced pluripotent stem cell (iPSC) derived neural precursor cells (NRC-100-010-001 and GNC-301-030-001, Cellular Dynamics International, Madison Wis.) were differentiated into neurons according to the manufactures protocol. Briefly, neural precursor cells were thawed and resuspended in chemically defined medium and added to sterile-culture plates coated with poly-D-lysine and laminin. The medium was replaced 24 hr after plating and then one-half of the medium was replaced every 3-5 days afterwards.
For cultured iPSC-derived neurons, RNA isolation and cDNA synthesis were performed using the Cell-to-CT kit (Thermo Fisher Scientific) in a lysate volume of 55 μl.
The steady state RNA levels of target transcripts were measured using TaqMan quantitative reverse-transcription PCR (qRT-PCR) assays. Total reaction volume was 10 uL, including 2 μl of cDNA, 1× Gene Expression Master mix (4369016, Thermo Fisher Scientific, Waltham, Mass.), and 1× TaqMan primer assay (Thermo Fisher Scientific). Cycling conditions were 2 minutes at 50° C., 10 minutes at 95° C., and 40 cycles of 15 seconds at 95° C. and 1 minute at 60° C., with readings taken at the 60° C. step of every cycle. Reactions were run on a BIO-RAD T1000 CFX96 thermocycler (Bio-Rad Laboratories, Hercules Calif.), with internal control (PPIA, Hs99999904_m1, Thermo Fisher Scientific) and target [UBE3A-AS, Hs01372957_m1; SNORD116-11, Hs04275268_gH; SNORD115, Hs04275288_gH; IPW, Hs03455409_s1; SNORD109A/B, AP47WVR (Thermo Fisher Scientific); UBE3A: forward […] (SEQ ID NO:500); reverse: […] (SEQ ID NO:501); and, probe: […] (SEQ ID NO:502)] reactions performed together. Data was retrieved and analyzed with the BIORAD CFX Maestro software (Bio-Rad Laboratories). Samples with internal control Cq values ≥30 were filtered. Quality of data was visually inspected to identify discrepancies between technical and/or plate replicates. Measurements for inferential statistics and descriptive statistics consist of ΔΔCq values (2^−ΔΔCq=2^−(Cq[target]−Cq[internal control])−(Cq[target]−Cq[internal control])).

[4] = parallel model, 4 Parameter logistic, read-out: IC50 (M), UBE3A-AS
[5] = treated 14 DIV, RNA 20 DIV, 10-point dose curve, full model, 4-parameter logistic (Hill), read-out: IC50 Estimate, UBE3A-AS

C^O*U^O*G^O*G^O-t*g*t*c*a*a*c*a*a*g-C^O*C^O*A^O*A^o [ASO-6.1.PO-1.O]
Difference, SNORD116 RNA level relative to vehicle [1]: −0.04 | Difference, SNURF RNA level relative to vehicle [2]: −0.53

A^L*G^L*A^L*a*t*g*g*c*a*c*a*t*c*t*5mC^L*T^L*T^L*G^L (NNNATGGCACATCTNNNN; LNA gapmer, PS, 5-methylcytosine, chemistry not fully specified) [ASO-4.4.PS.L]
Difference, SNORD116 RNA level relative to vehicle [1]: 0.27 | Difference, SNURF RNA level relative to vehicle [2]: 0.49

U^O*A^O*G^O*A^O*A^O*t*g*g*c*a*c*a*t*c*t*C^O*U^O*U^O*G^O*G^O [ASO-4]
30 μM (Mean), normalized UBE3A-AS RNA level relative to vehicle [3]: 0.17 | Emax Estimate (normalized UBE3A-AS RNA level relative to vehicle) ([3]; 4-parameter logistic (Hill)): −1.45 | IC50 [3, 4]: 3.06e-06 M | Relative Potency ([3]; parallel model, relative to ASO-4 = 1): 1 | IC50 [3, 5]: 0.000121 M

C^O*U^O*G^O*G^O*t*g*t*c*a*a*c*a*a*g*C^O*C^O*A^O*A^O [ASO-6.1]
30 μM (Mean), normalized UBE3A-AS RNA level relative to vehicle [3]: 0.04 | Emax Estimate (normalized UBE3A-AS RNA level relative to vehicle) ([3]; 4-parameter logistic (Hill)): −0.27 | IC50 [3, 4]: 7.8e-07 M | IC50 [3, 5]: 2.44e-07 M

— patent US11198869B2, “Angelman syndrome antisense treatment” (The Texas A&M University System, priority 2017, dated 2021)
